Results reported in patent publication US6156762A, “Indolomorphinan derivative and agent for curing and preventing cerebral disorder” (Toray Industries, Inc., priority 1997, dated 2000).

Each molecule was assayed on cultured nerve cells (assay: Action of protecting cultured nerve cells from glutamic acid toxicity (LDH leakage)). Details: rat fetal cerebral cortex cells, 10 mM glutamic acid, 24 hours, read-out: ED50 (the source's name).
Assay type: cell-based, Wistar rat
Excerpt: It is known that when the blood flow to the brain is temporarily clogged due to cerebral ischemia, hypoxia, or an trauma, delayed cerebral neuronal death is induced [Document: Brain Research, Vol. 239, 57 (1982)]. A possible cause of such damage of the cerebral nerve cells is excitatory toxicity due to an excitatory neutotransmitter such as glutamic acid or the like, which is excessively released with ischemia [Document: Trends in Neuroscience, vol. 10, 299 (1987)]. […] This is a problem to be solved by the invention. This action was evaluated by using the in vitro evaluation system which will be described below.
A fetus was taken from the abdomen of a Wistar female rat on the 18 to 19th day of pregnancy under aseptic conditions, and the head of the fetus was opened to extract the brain. The brain was placed in an ice-cooled L-15 medium, and the cerebral cortex was separated under a microscope. The cerebral cortexes of about 30 rats were cut into pieces, and then suspended in 10 ml of a 0.25% trypsin solution and 0.2 ml of a 0.01% DNase solution, followed by culture at 37° C. for 30 minutes. Then, 2 ml of serum was added to the solution, and immediately the resultant mixture was centrifuged at 120 rpm for 2 minutes to separate the precipitates. To the precipitates was added 7 ml of a DF medium (a medium obtained by adding 20 nM of transferrin, 5 μg/ml of insulin, 20 nM of progesterone,60 nM of selenite, 50 U/ml of penicillin, and 50 U/ml of streptomycin to a mixture equivalent amounts of Dulbecco modified Eagle medium and F-12 medium), followed by 20 pipetting operations using a 10-ml plastic pipette to obtain a cell suspension. The cell suspension was filtered with nylon mesh (pore diameter 43 μm) to fractionate isolated cells. The thus-obtained isolated cells were diluted with a DF medium to a concentration of 6.0×10^5 cells/ml, and 500 μl of the diluted cells was inoculated in each of the 48 wells of a 48-well culture plate precoated with polylysine, followed by culture at 37° C. for 1 day in the presence of 5% of CO2. On the 2nd day, the medium was changed to a new DF medium, and 10 μl of a solution of 0.5M glutamic acid in distilled water was added to each of the wells (the final glutamic acid concentration was 10 mM), followed by further culture at 37° C. for 24 hours in the presence 5% of CO2. A test compound was dissolved in distilled water, 10% or 100% DMSO or 10% methanol, and 5 μl of the solution was added to each of the wells immediately before glutamic acid was added. As an index of nerve cell damage, the enzyme activity of lactic acid dehydrogenase (LDH) leaking from the damaged cells into the medium was measured. For each of the test compounds, the LDH leakage was measured at each of concentrations to determine a dose-response curve by the modified Cochran-Armitige method. The 50% effective dose (ED50) of each of the test compounds we determined from the curve.

Structure (SMILES) | EC50 [nM]
Oc1ccc2c3c1O[C@H]1c4c(c5ccc6ccccc6c5n4CCCN=C=S)C[C@@]4(O)[C@@H](C2)N(CC2CC2)CC[C@]314 [Compound 60, 17-cyclopropylmethyl-3,14β-dihydroxy-6,7-dehydro-4,5α-epoxy-6,7,2',3'-[1'-(3-isothiocyanatopropyl)-6',7'-benzoindolo)morphinan] | 93
Oc1ccc2c3c1O[C@H]1c4[nH]c5c(cc(-c6ccccc6)c6ccccc65)c4C[C@@]4(O)[C@@H](C2)N(CC2CC2)CC[C@]314 [Compound 15, 17-cyclopropylmethyl-3,14β-dihydroxy-6,7-dehydro-4,5α-epoxy-6,7,2',3'-(5'-phenyl-6',7'-benzoindolo)morphinan] | 150
Cc1ccc(Cn2c3c(c4ccc5ccccc5c42)C[C@@]2(O)[C@H]4Cc5ccc(O)c6c5[C@@]2(CCN4CC2CC2)[C@H]3O6)cc1 [Compound 71] | 19
Oc1ccc2c3c1O[C@H]1c4c(c5ccccc5n4-c4ccccc4)C[C@@]4(O)[C@@H](C2)N(CC2CC2)CC[C@]314 [Compound 4, 17-cyclopropylmethyl-3,14β-dihydroxy-6,7-dehydro-4,5α-epoxy-6,7,2',3'-(1'-phenylindolo)morphinan] | 80
O=C(/C=C/c1cccc(C(F)(F)F)c1)NCCCn1c2c(c3ccc4ccccc4c31)C[C@@]1(O)[C@H]3Cc4ccc(O)c5c4[C@@]1(CCN3CC1CC1)[C@H]2O5 [Compound 65, 17-cyclopropylmethyl-3,14β-dihydroxy-6,7-dehydro-4,5α-epoxy-6,7,2',3'-[1'-(3-(3-trifluoromethylcinnamamido)propyl)-6',7'-benzoindolo]morphinan] | 110
CCCCCCCc1ccc2c3c([nH]c2c1)[C@@H]1Oc2c(O)ccc4c2[C@@]12CCN(CC1CC1)[C@H](C4)[C@]2(O)C3 [Compound 7, 17-cyclopropylmethyl-3,14β-dihydroxy-6,7-dehydro-4,5α-epoxy-6,7,2',3'-(6'-heptylindolo)morphinan] | 200
Oc1ccc2c3c1O[C@H]1c4c(c5ccccc5n4Cc4ccccc4)C[C@@]4(O)[C@@H](C2)N(CC2CC2)CC[C@]314 [Compound 68, 17-cyclopropylmethyl-3,14β-dihydroxy-6,7-dehydro-4,5α-epoxy-6,7,2',3'-(1'-benzylindolo)morphinan] | 91
N#Cc1cc2c3c([nH]c2c2ccccc12)[C@@H]1Oc2c(O)ccc4c2[C@@]12CCN(CC1CC1)[C@H](C4)[C@]2(O)C3 [Compound 11, 17-cyclopropylmethyl-3,14β-dihydroxy-6,7-dehydro-4,5α-epoxy-6,7,2',3'-(5'-cyano-6',7'-benzoindolo)morphian] | 138
Cn1c2c(c3cc4c5c(cccc5c31)CC4)C[C@@]1(O)[C@H]3Cc4ccc(O)c5c4[C@@]1(CCN3CC1CC1)[C@H]2O5 [Compound 84, 17-cyclopropylmethyl-3,14β-dihydroxy-6,7-dehydro-4,5α-epoxy-6,7,2',3'-(1'-methyl-5',6"-ethano-6',7'-benzoindolo)morphinan] | 39
Oc1ccc2c3c1O[C@H]1c4c(c5ccccc5n4CCCN=C=S)C[C@@]4(O)[C@@H](C2)N(CC2CC2)CC[C@]314 [Compound 59, 17-cyclopropylmethyl-3,14β-dihydroxy-6,7-dehydro-4,5α-epoxy-6,7,2',3'-[1'-(3-isothiocyanatopropyl)indolo]morphinan] | 110
O=C(/C=C/c1cccc(C(F)(F)F)c1)NCCCn1c2c(c3ccccc31)C[C@@]1(O)[C@H]3Cc4ccc(O)c5c4[C@@]1(CCN3CC1CC1)[C@H]2O5 [Compound 63, 17-cyclopropylmethyl-3,14β-dihydroxy-6,7-dehydro-4,5α-epoxy-6,7,2',3'-[1'-[3-(3-trifluoromethylcinnamido)propyl]indolo]morphinan] | 150
Oc1ccc2c3c1O[C@H]1c4c(c5cc6c7c(cccc7c5n4Cc4ccccc4)CC6)C[C@@]4(O)[C@@H](C2)N(CC2CC2)CC[C@]314 [Compound 83, 17-cyclopropylmethyl-3,14β-dihydroxy-6,7-dehydro-4,5α-epoxy-6,7,2',3'-(1'-benzyl-5',6"-ethano-6',7'-benzoindolo)morphinan] | 73
Oc1ccc2c3c1O[C@H]1c4[nH]c5c6c(ccc5c4C[C@@]4(O)[C@@H](C2)N(CC2CC2)CC[C@]314)Cc1ccccc1-6 [Compound 22, 17-cyclopropylmethyl-3,14β-dihydroxy-6,7-dehydro-4,5α-epoxy-6,7,2',3'-(6',7',2",3"-indenoindolo)morphinan] | 50
Cc1cc2c3c([nH]c2c2ccccc12)[C@@H]1Oc2c(O)ccc4c2[C@@]12CCN(CC1CC1)[C@H](C4)[C@]2(O)C3 [Compound 13, 17-cyclopropylmethyl-3,14β-dihydroxy-6,7-dehydro-4,5α-epoxy-6,7,2',3'-(5'-methyl-6',7'-benzoindolo)morphinan] | 93
NCCCn1c2c(c3ccccc31)C[C@@]1(O)[C@H]3Cc4ccc(O)c5c4[C@@]1(CCN3CC1CC1)[C@H]2O5 [Compound 24, 17-cyclopropylmethyl-3,14β-dihydroxy-6,7-dehydro-4,5α-epoxy-6,7,2',3'-[1'-(3-aminopropyl)indolo]morphinan] | 800

What follows are molecules tested on middle cerebral artery ischemia model of rat (assay: Infarction inhibiting action in middle cerebral artery ischemia (MCAo-recirculation) model of rat). Details: ip, 24 h, 3 mg/kg i.p. 10 minutes before occlusion and 1 hour after recirculation, infarction volume one day after, vs control group, read-out: Rate of inhibition of infarction.
Assay type: in vivo
Excerpt: It is also known that, in this way, in the acute stage of cerebral infarction, the lesion proceeds to the peripheral tissue from the core of infarction, and death of the nerve cells is extended with the passage of several days. This possible not only extends and creates grave aftereffects, and causes loss of motor and mental function, but also finally critically influences on the life. As an in vivo experimental model of cerebral infarction which is capable of precisely evaluating the clinical effect of a medicine in conformity with clinical conditions of the disease of a patient of cerebral infarction, the middle cerebral artery occlusion (MCAo)-recirculation model comprising an embolus with a yarn using Wister rates may be used [Document: Japan Journal of Stroke, vol. 8, 1 (1986)]. […] This action was evaluated by applying the MCAo model by the method which will be described below.
In rats of 10 weeks old, after etherization, a median incision of the cervical region was made up to the right carotid artery bifurcation under 1.0% halothane anesthetization with care to preserve the vagus nerves. The common carotid artery and the external carotid artery were separated from the periphery connective tissue with the right carotid artery bifurcation as the center, and each of the arteries was ligated by a 6-0 silk yarn (Eto yarn). Further, a yarn was wound on the internal carotid artery origin in preparation for ligation and fixing after insertion of the embolus. Next, the common carotid artery was incised, and the embolus was inserted from the common carotid artery to the internal carotid artery by about 15 to 16 mm, and ligated and fixed to the internal carotid artery by the silk yarn at the end thereof near the nylon yarn. In this operation, the end of the embolus was inserted into the anterior cerebral artery by about 1 to 2 mm beyond the middle cerebral artery bifurcation, and the inlet of the middle cerebral artery was occluded by the body (resin part) of the embolus for 1 hours. In recirculation, the embolus with a yarn was removed to recirculate the blood flow to the middle cerebral artery. 3 mg/kg of each of test compounds was intraperitoneally administered 10 minutes before occlusion and 1 hour after recirculation of the blood flow. One day after occlusion and recirculation, the whole body was perfused with physiologic saline through the heart, and the brain was extracted. The extracted brain was cooled with ice and water for 5 minutes, and cut at intervals of 2.0 mm to form 7 sections of the cerebral coronal surface. Each of the sections was stained with TTC (Triphenyltetrazolium Chloride), and fixed by a 5% neutral buffer formalin solution. In each of the sections, the infarction area in the right cerebral hemisphere was measured by an image analyzer (Olympus), and the infarction was evaluated by volume (mm^3). The infarction volume was compared with the infarction volume of a control group to calculate the rate of inhibition of infarction.

Structure (SMILES) | inhibition in vivo at 3 mg/kg [%]
Oc1ccc2c3c1O[C@H]1c4[nH]c5c(ccc6ccccc65)c4C[C@@]4(O)[C@@H](C2)N(CC2CCC2)CC[C@]314 [Compound 76, 17-cyclobutylmethyl-3,14β-dihydroxy-6,7-dehydro-4,5α-epoxy-6,7,2',3'-(6',7'-benzoindolo)morphinan] | 65
Oc1ccc2c3c1O[C@H]1c4[nH]c5c6ccccc6c6ccccc6c5c4C[C@@]4(O)[C@@H](C2)N(CC2CC2)CC[C@]314 [Compound 23, 17-cyclopropylmethyl-3,14β-dihydroxy-6,7-dehydro-4,5α-epoxy-6,7,2',3'-(4',5',6',7'-debenzoindolo)morphinan] | 79
Oc1ccc2c3c1O[C@H]1c4[nH]c5c(ccc6ccccc65)c4C[C@@]4(O)[C@@H](C2)N(CCc2ccccc2)CC[C@]314 [Compound 75, 17-(2-phenylethyl)-3,14β-dihydroxy-6,7-dehydro-4,5α-epoxy-6,7,2',3'-(6',7'-benzoindolo)morphinan] | 30
Oc1ccc2c3c1O[C@H]1c4[nH]c5c(cc(Cl)c6ccccc65)c4C[C@@]4(O)[C@@H](C2)N(CC2CC2)CC[C@]314 [Compound 10, 17-cyclopropylmethyl-3,14β-dihydroxy-6,7-dehydro-4,5α-epoxy-6,7,2',3'-(5'-chloro-6',7'-benzoindolo)morphinan] | 15
